In patent US20140130208A1, “METHODS AND MEANS TO PRODUCE ABIOTIC STRESS TOLERANT PLANTS” (VIB VZW, priority 2011, published 2014):

Key:
Assay type in all cases: in vivo, Arabidopsis thaliana
CDKA = CDKA activity assay on protein extracted from proliferating third leaves; conditions: wild type; 10 and 24 h after transfer to 25 mM mannitol or 5 μM ACC
Description: At 9 DAS, when the third leaf is fully proliferating, seedlings were transferred to plates containing control medium or medium supplemented with 25 mM mannitol (Sigma-Aldrich) or 5 μM ACC (Sigma-Aldrich) by gently lifting the nylon mesh with forceps. For the CDKA activity assay the transfer was done at 11 DAS; at this stage, the third leaf is still dividing and can be quickly harvested without the need for RNAlater solution (see below) that would inhibit CDKA activity. All transfers were performed 2-3 h into the day.
Total soluble protein was extracted from 50 leaves by adding extraction buffer (Van Leene et al., 2007) to ground samples, followed by two freeze-thaw steps and two centrifugation steps (20,817 g, 10 min, 4° C.), whereby the supernatant was collected each time. Equal amounts of total protein were incubated with p9^CKS1Hs-sepharose beads (De Veylder et al., 1997) and kinase assays were performed as described (De Veylder et al., 1997) with histone H1 as CDK substrate. To correct for the amount of CDKA protein purified by p9^CKS1Hs-sepharose beads, an aliquot of each sample was used for protein gel blot analysis with primary rabbit anti-PSTAIRE antibodies (Santa Cruz) (diluted 1:5000) and a secondary horseradish peroxidase-conjugated donkey anti-rabbit antibodies (GE-Healthcare) (diluted 1:10,000). Proteins were detected by chemiluminescence (Western Lightning Plus ECL, PerkinElmer Life Sciences). CDK activity and CDKA amount were quantified with ImageJ v1.41o. Control samples were arbitrarily set at 100%.

ACC levels in shoots = assay: Quantification of ACC in shoots by CE-MS
Description: To find out whether differential transcripts reflect changes in hormone levels, we determined concentrations of the ethylene precursor ACC in complete shoots of 9-day-old plants transferred to mannitol. Already 1 h after stress onset, ACC levels were 30% higher in stressed than in control samples, although this was not significant, and by 10 h, the increase was more than 2-fold and significant (FIG. 7B). At the time of analysis, the shoot samples were mainly composed of expanding cells, reflecting the overall importance of ethylene signaling for the response of growing tissues to stress.
Freeze-dried samples were dissolved in 500 μl of methanol, including two internal standard compounds (4 μM methionine sulfone used for compensation of the peak area after capillary electrophoresis-mass spectrometry (CE-MS) analysis and 0.2 μM D4-ACC for quantification of ACC. After addition of 500 μl of chloroform and 200 μl of water, the mixture was vortexed for 3 min and centrifuged at 20,400 g for 3 min at 4° C. The upper layer was evaporated for 30 min at 45° C. by a centrifugal concentrator and then separated into two layers. The upper layer (100-200 μl) was centrifugally filtered through a Millipore 5-kD cutoff filter at 9,100 g for 90 min. […] The final solution (10 μL) was used to quantify the contents of ACC by cation analysis using CE-MS. […]

[1] = test system: CYCB1;1:Dbox-GUS reporter line; assay: CYCB1;1:DBox-GUS staining of mitotic activity in leaf 3; conditions: 48 h after transfer to 25 mM mannitol or 5 μM ACC
Description: Arabidopsis seedlings were germinated and grown on nylon meshes overlaying control medium until 9 days after stratification (DAS), when the third true leaf is fully proliferating (Skirycz et al., 2010), and subsequently transferred to control or mannitol-containing medium (FIGS. 1A to 10). Kinematic analysis was performed, whereby leaves were harvested daily throughout development of leaf 3 (9-20 DAS) and based on drawings of the abaxial epidermis cell number, cell area, number of guard cells and cell division and cell expansion rates were calculated (De Veylder et al., 2001). […] Leaf and plant morphology were not altered by mannitol (FIG. 2C). Cell expansion was also affected by stress and the reduced final leaf area was a combination of fewer and smaller cells (FIG. 2D). The stomatal index, which represents the number of stomata as a fraction of the total number of cells, was reduced as well (FIG. 2E). To learn more about the mechanisms underlying the rapid reduction of cell division upon stress onset, we harvested leaf samples daily after transfer. As a measure of cellular differentiation, the ploidy distribution was examined by flow cytometry. […] In stressed leaves, 4C nuclei started to accumulate approximately one day earlier than in controls at the expense of 2C nuclei (FIG. 3A). […]

OC[C@@H](O)[C@@H](O)[C@H](O)[C@H](O)CO [mannitol]
CDKA activity (CDKA): decreased as early as 10 h after stress onset and remained low at 24 h
increase of ACC levels in stressed versus control shoots (ACC levels in shoots; 1 h after stress onset, not significant): 30%
increase of ACC levels in stressed versus control shoots (ACC levels in shoots; 10 h after stress onset, significant): more than 2 fold
number of mitotic cells (CYCB1;1:DBox-GUS activity) [1]: reduced number of mitotic cells
